The values below come from ChEMBL document CHEMBL4130584, “Sesqui- and Diterpenoids from the Radix of Curcuma aromatica” (2017).

Common to all, as to assay type: functional
The subject of assay [1] is PC-12. Put plainly: Antioxidant activity against H2O2-induced cell damage in rat PC12 cells assessed as cell viability at 10 uM after 24 hrs by MTT assay (reference value: 64.34 +/- 1.02 %). Conditions: PC-12, 24 h, read-out: Activity. Background: Tetrazolium assays rely on reduction of a dye to a coloured formazan, in cell work by metabolically active cells.
For assay [2], the system named is PC-12. Nature of the assay: Antioxidant activity against H2O2-induced cell damage in rat PC12 cells assessed as cell viability at 1 uM after 24 hrs by MTT assay (reference value: 64.34 +/- 1.02 %). Conditions: for viability at 1 µM: PC-12, 24 h, read-out: Activity.
Assay [3] relates to PC-12. Nature of the assay: Antioxidant activity against H2O2-induced cell damage in rat PC12 cells assessed as cell viability at 5 uM after 24 hrs by MTT assay (reference value: 64.34 +/- 1.02 %). The settings on record: PC-12, 24 h, read-out: Activity.

As for `CC1=C2CC(=O)[C@@H](C)CC/C=C(\C)C[C@@]2(O)OC1=O`, in the assay on PC-12 [1], the viability at 10 µM worked out at 78.4%. For the same compound, the viability at 1 µM in the assay with PC-12 [2] was determined as 74.5%. Also, the viability at 5 µM in the assay with PC-12 [3] is 76.1%.
In the case of `Cc1cc2oc(=O)c(C)c-2cc2c1CC[C@H]2C`, in the assay with PC-12 [1], the viability at 10 µM is 72.5%. In the assay on PC-12 [2], the viability at 1 µM was 68.1%. The viability at 5 µM with PC-12 [3] is 70.6%.
Taken in the same sequence, the figures for `CC1=C2CC(=O)[C@@H](C)CC/C=C(\C)C[C@H]2OC1=O` were 80.2%, 65.4% and 77.4%.
Taken in the same sequence, the figures for `CC(=O)CCc1c(C)cc(O)c2c1C(=O)OC2(C)C` were 70.2%, 65.4% and 68.7%.
Taken in the same sequence, the figures for `CC1(C)CCC[C@]2(C)[C@@H]1CC[C@](O)(CO)[C@H]2C/C=C1\CCOC1=O` were 74.1%, 67.6% and 72.2%.
Take `CC(C)C1=CC[C@@](C)(O)[C@@H]2CC[C@@](C)(O)[C@@H]2C1`: the viability at 10 µM with PC-12 [1] came to 77.7%. In the assay with PC-12 [2], the viability at 1 µM stood at 69.5%. Moreover, the viability at 5 µM in the assay on PC-12 [3] amounted to 77.9%.
Taken in the same sequence, the figures for `CC1=CC(=O)[C@]23C[C@]24[C@@]1(O)CC[C@]4(C)OC3(C)C` were 77.2%, 72.7% and 74.8%.
Taken in the same sequence, the figures for `CC1=CC(=O)C(=C(C)C)C[C@@]2(O)[C@H](C)CC[C@@H]12` were 76.2%, 69.5% and 68.8%.
The matching figures for `C=C[C@]1(C)C[C@@H]2OC(=O)C(C)=C2C[C@H]1C(=C)C` [ISOGERMAFURENOLIDE]: 67.2%, 62.5% and 63.7%.
As for `CC1=C2CC[C@](C)(O)[C@H]2CC2=C(C)C(=O)O[C@@]2(O)C1`, the viability at 10 µM with PC-12 [1] amounted to 74.3%. The viability at 1 µM with PC-12 [2] worked out at 82.7%. Further, in the assay with PC-12 [3], the viability at 5 µM came out at 76.8%.
For `CC1=C2C[C@]34O[C@](C)(C[C@H]2OC1=O)[C@H]3CC[C@@H]4C`, in the assay on PC-12 [1], the viability at 10 µM worked out at 79.3%. Further, in the assay on PC-12 [2], the viability at 1 µM was determined as 67.4%. For the same compound, the viability at 5 µM in the assay on PC-12 [3] is 71.6%.
The matching figures for `CC1=C2C[C@H]3[C@H](CC[C@]3(C)O)[C@@](C)(O)C[C@]2(O)OC1=O` [ZEDOAROLIDE B]: 80.7%, 76.1% and 77%.
Turning to `C[C@]12CCC[C@](C)(C(=O)O)[C@@H]1CC[C@@]13CC[C@@H]([C@H](O)[C@H]21)[C@]1(C)O[C@H]31`, in the assay with PC-12 [1], the viability at 10 µM came to 72.3%. Besides, the viability at 1 µM in the assay with PC-12 [2] amounted to 68.2%. The viability at 5 µM in the assay with PC-12 [3] came out at 70.8%.
The matching figures for `C=C1CC[C@H]2C(C)(C)CCC[C@]2(C)[C@H]1CCC1=CC(=O)OC1`: 72.1%, 67.1% and 70.2%.
Consider `CC(C)=C1C[C@]2(O)[C@@H](CC[C@@H]2C)[C@@](C)(O)CC1=O`, for which, in the assay on PC-12 [1], the viability at 10 µM worked out at 65.2%. Further, the viability at 1 µM in the assay with PC-12 [2] came out at 66.3%. In addition, in the assay with PC-12 [3], the viability at 5 µM was 64%.
Taken in the same sequence, the figures for `CC1=C2C[C@H]3[C@H](CC[C@]3(C)O)[C@@](C)(O)C[C@@H]2OC1=O` [ZEDOALACTONE C] were 81%, 73.1% and 77.3%.
Taken in the same sequence, the figures for `C=C(C)C(=O)C[C@@]12OC(=O)C=C(C)[C@@H]1CC[C@@H]2C` were 75.9%, 69.3% and 72.4%.
The matching figures for `Cc1cc(=O)c(C(C)C)cc2c1CC[C@]2(C)O`: 75.2%, 77.7% and 76.7%.
Take `CC1=C2C[C@@H]3[C@](C)(CCC[C@@]3(C)O)C[C@]2(O)OC1=O`: the viability at 10 µM in the assay with PC-12 [1] was determined as 90.1%. Further, the viability at 1 µM in the assay with PC-12 [2] amounted to 81.2%. Moreover, the viability at 5 µM with PC-12 [3] was 80.9%.
The matching figures for `CCO[C@]12C/C(C)=C/CC[C@@H](C)C(=O)CC1=C(C)C(=O)O2`: 85.2%, 77.7% and 80.9%.
For the compound `CC1=C2C[C@@]34O[C@]2(OC1=O)[C@H](O)[C@](C)(O)[C@@H]3CC[C@H]4C`, the viability at 10 µM in the assay on PC-12 [1] came out at 79.8%. In the assay with PC-12 [2], the viability at 1 µM came to 73.7%. Moreover, in the assay with PC-12 [3], the viability at 5 µM was 77.7%.
VITAMIN E: the Activity in the assay with PC-12 [2] stood at 80.9%.
Take `CC1=C2CC[C@](C)(O)[C@H]2CC2=C(C)C(=O)OC2=C1`: the viability at 10 µM with PC-12 [1] is 88.7%. Also, the viability at 1 µM in the assay on PC-12 [2] was found to be 82.9%. Also, the viability at 5 µM with PC-12 [3] turned out to be 84%.
The matching figures for `CC1=CC(=O)C(=C(C)C)C[C@H]2[C@H]1CC[C@]2(C)O` [PROCURCUMENOL]: 69.6%, 66.4% and 70%.
On to `C=C1CC[C@H]2C(C)(C)[C@@H](O)CC[C@]2(C)[C@H]1C/C=C1\CCOC1=O`, for which the viability at 10 µM in the assay on PC-12 [1] came out at 67.4%. Moreover, the viability at 1 µM in the assay on PC-12 [2] was found to be 66.9%. Besides, the viability at 5 µM in the assay with PC-12 [3] stood at 67.1%.
On to `CC1=C2C[C@@H]3[C@H](CC[C@@]3(C)O)[C@](C)(O)C[C@H]2OC1=O`, for which, in the assay with PC-12 [1], the viability at 10 µM was 76.4%. The viability at 1 µM with PC-12 [2] was determined as 67.5%. Besides, in the assay on PC-12 [3], the viability at 5 µM is 72%.
Consider `CC(C)=C1C[C@H]2[C@@H](CC[C@]2(C)O)[C@](C)(O)CC1=O` [ZEDOARONDIOL], for which, in the assay with PC-12 [1], the viability at 10 µM was 72.6%. Moreover, the viability at 1 µM in the assay on PC-12 [2] was found to be 81.9%. Besides, the viability at 5 µM in the assay with PC-12 [3] came out at 70.3%.
As to `CC1=CC(=O)O[C@@]2(CC(=O)C(C)C)[C@@H](C)CC[C@@H]12`, the viability at 10 µM in the assay on PC-12 [1] came to 89%. In the assay on PC-12 [2], the viability at 1 µM worked out at 73.4%. Besides, the viability at 5 µM in the assay on PC-12 [3] is 83.5%.
